# Data taken from patent US9943516B2, “Inhibitors of IRAK4 activity” (MERCK SHARP & DOHME CORP., priority 2014, dated 2018).
# Biological target: IRAK4 (Homo sapiens (Human), UniProt Q9NWZ3)
# Assay: IRAK4 Kinase Assay (IMAP fluorescence polarization)
# Assay type: biochemical
# Conditions: 0.5 nM GST tagged IRAK4, 100 μM ATP, 30 minutes at 25° C.
# Protocol: The kinase activity of IRAK4 is determined by its ability to catalyze the phosphorylation of a fluorescent polypeptide substrate. The extent of phosphorylation is measured using the IMAP technology (Molecular Devices) where the phosphorylated fluorescent substrate binds to the large M(III)-based nanoparticles which reduces the rotational speed of the substrate and thus increases its fluorescent polarization (FP).
# 20 μL reaction mixture contains 10 mM TriHCl, pH 7.2, 0.5 nM GST tagged IRAK4 (SignalChem), 100 nM fluorescent peptide substrate (RP7030, Molecular Devices), 100 μM ATP, 1 mM DDT, 1 mM MgCl2, and 0.01% Tween 20. The reaction is initiated by the addition of ATP. After incubation for 30 minutes at 25° C., 60 μL of Progressive IMAP Reagent (Molecular Devices) is added to stop the reaction. Change in RP7030's FP is determined by a FP reader (Analyst HT, LJL BioSystems).
# Chain of IRAK4 (Q9NWZ3 whole entry): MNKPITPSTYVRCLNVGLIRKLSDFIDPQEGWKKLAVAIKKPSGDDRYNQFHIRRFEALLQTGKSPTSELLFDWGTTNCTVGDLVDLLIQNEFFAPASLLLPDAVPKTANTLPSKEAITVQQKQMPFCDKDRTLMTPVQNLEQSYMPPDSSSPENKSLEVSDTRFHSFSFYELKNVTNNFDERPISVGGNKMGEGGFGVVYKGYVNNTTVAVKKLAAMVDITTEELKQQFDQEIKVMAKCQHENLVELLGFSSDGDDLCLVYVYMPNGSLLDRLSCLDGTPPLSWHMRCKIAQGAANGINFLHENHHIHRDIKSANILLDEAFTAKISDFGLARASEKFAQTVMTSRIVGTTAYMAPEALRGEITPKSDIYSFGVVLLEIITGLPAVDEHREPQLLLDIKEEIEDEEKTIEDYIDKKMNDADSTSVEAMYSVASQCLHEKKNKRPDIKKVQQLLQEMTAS
row,Structure (SMILES),IC50 [nM]
1,"OC1CCCC(c2ccc3ncnc(N[C@H]4CC[C@H](N5CCOCC5)CC4)c3c2)C1 (single isomer, unassigned) [Example 4-1, 3-(4-(((trans)-4-Morpholinocyclohexyl)amino)quinazolin-6-yl)cyclohexanol]",39
2,"OC1CCCC(c2ccc3ncnc(N[C@H]4CC[C@H](N5CCOCC5)CC4)c3c2)C1 (single isomer, unassigned) [Example 4-3, 3-(4-(((trans)-4-Morpholinocyclohexyl)amino)quinazolin-6-yl)cyclohexanol]",11
3,"Cc1c(C2CC2)ccc2ncnc(N[C@H]3CC[C@H](N4CCOCC4)CC3)c12 [Example 1-1, 6-Cyclopropyl-5-methyl-N-(trans-4-morpholinocyclohexyl)quinazolin-4-amine]",345
4,"CN(C)C1CCC(Nc2ncnc3ccc(C4CC4)cc23)CC1 (stereo not shown) [Example 1-2, N′-(6-cyclopropylquinazolin-4-yl)-N,N-dimethylcyclohexane-1,4-diamine]",12
5,"c1nc(N[C@H]2CC[C@H](N3CCOCC3)CC2)c2cc(C3CC3)ccc2n1 [Example 1-3, 6-cyclopropyl-N-(trans-4-morpholin-4-ylcyclohexyl)quinazolin-4-amine]",5
6,"Fc1cc2ncnc(N[C@H]3CC[C@H](N4CCOCC4)CC3)c2cc1C1CC1 [Example 1-4, 6-cyclopropyl-7-fluoro-N-(trans-4-morpholin-4-ylcyclohexyl)quinazolin-4-amine]",12
7,"CC1(c2ccc3ncnc(N[C@H]4CC[C@H](N5CCOCC5)CC4)c3c2)CC1 [Example 1-5, 6-(1-methylcyclopropyl)-N-(trans-4-morpholin-4-ylcyclohexyl)quinazolin-4-amine]",52
8,"c1nc(N[C@H]2CC[C@H](N3CCOCC3)CC2)c2cc(C3CCC3)ccc2n1 [Example 1-6, 6-cyclobutyl-N-(trans-4-morpholin-4-ylcyclohexyl)quinazolin-4-amine]",3
9,"c1nc(N[C@H]2CC[C@H](N3CCOCC3)CC2)c2cc(C3CCCC3)ccc2n1 [Example 1-7, 6-cyclopentyl-N-(trans-4-morpholin-4-ylcyclohexyl)quinazolin-4-amine]",5
10,"c1nc(N[C@H]2CC[C@H](N3CCOCC3)CC2)c2cc(C3CCCCC3)ccc2n1 [Example 1-8, 6-cyclohexyl-N-(trans-4-morpholin-4-ylcyclohexyl)quinazolin-4-amine]",19
11,"c1nc(N[C@H]2CC[C@H](N3CCOCC3)CC2)c2cc(C3COC3)ccc2n1 [Example 2-1, N-((trans)-4-morpholinocyclohexyl)-6-(oxetan-3-yl)quinazolin-4-amine]",32
12,"c1nc(N[C@H]2CC[C@H](N3CCOCC3)CC2)c2cc(C3CCOC3)ccc2n1 (stereo partly drawn) [Example 2-2, N-(trans-4-morpholin-4-ylcyclohexyl)-6-(tetrahydrofuran-3-yl)quinazolin-4-amine]",18
13,"c1nc(N[C@H]2CC[C@H](N3CCOCC3)CC2)c2cc(C3CCCO3)ccc2n1 (stereo partly drawn) [Example 3-1, N-((trans)-4-morpholinocyclohexyl)-6-(tetrahydrofuran-2-yl)quinazolin-4-amine]",170
14,"N#CC1CCC(c2ccc3ncnc(N[C@H]4CC[C@H](N5CCOCC5)CC4)c3c2)CC1 (stereo partly drawn) [Example 3-2, 4-{4-[(trans-4-morpholin-4-ylcyclohexyl)amino]quinazolin-6-yl}cyclohexanecarbonitrile]",169
15,"FC1(F)CCC(c2ccc3ncnc(N[C@H]4CC[C@H](N5CCOCC5)CC4)c3c2)CC1 [Example 3-3, 6-(4,4-difluorocyclohexyl)-N-(trans-4-morpholin-4-ylcyclohexyl)quinazolin-4-amine]",71
16,"c1nc(N[C@H]2CC[C@H](N3CCOCC3)CC2)c2cc(C3CCOCC3)ccc2n1 [Example 3-4, N-(trans-4-morpholin-4-ylcyclohexyl)-6-(tetrahydro-2H-pyran-4-yl)quinazolin-4-amine]",91
17,"c1nc(N[C@H]2CC[C@H](N3CCOCC3)CC2)c2cc(C3CCCOC3)ccc2n1 (stereo partly drawn) [Example 3-5, N-(trans-4-morpholin-4-ylcyclohexyl)-6-(tetrahydro-2H-pyran-3-yl)quinazolin-4-amine]",13
18,"O=C(O)C1CCC(c2ccc3ncnc(N[C@H]4CC[C@H](N5CCOCC5)CC4)c3c2)CC1 (stereo partly drawn) [Example 3-6, 4-{4-[(trans-4-morpholin-4-ylcyclohexyl)amino]quinazolin-6-yl}cyclohexanecarboxylic acid]",98
19,"OC1CCCC(c2ccc3ncnc(N[C@H]4CC[C@H](N5CCOCC5)CC4)c3c2)C1 (stereo partly drawn) [Example 4-2, 3-(4-(((trans)-4-Morpholinocyclohexyl)amino)quinazolin-6-yl)cyclohexanol]",55
